Test results reported in ChEMBL document CHEMBL3867421, “The action mechanism of daptomycin” (Bioorg Med Chem, 2016).
Converted amounts (≈) assume the structure as drawn.

How the values were obtained:
Bacillus subtilis [1] = test: Antibacterial activity against Bacillus subtilis PY79 after 18 hrs by two-fold serial dilution method relative to daptomycin; type: functional
Staphylococcus aureus [2] = test: Antibacterial activity against Staphylococcus aureus relative to daptomycin; type: functional
Bacillus subtilis [3] = test: Antibacterial activity against Bacillus subtilis relative to daptomycin; type: functional
Bacillus spizizenii = test: Antibacterial activity against Bacillus subtilis ATCC 6633 incubated overnight by broth dilution method; type: functional
Bacillus subtilis [4] = test: Antibacterial activity against Bacillus subtilis ATCC 1046 incubated overnight by broth dilution method; type: functional
Enterococcus faecium = test: Antibacterial activity against Enterococcus faecium 14 by broth microdilution assay relative to daptomycin; type: functional
Enterococcus faecalis = test: Antibacterial activity against Enterococcus faecalis 201 by broth microdilution assay relative to daptomycin; type: functional
Staphylococcus aureus [5] = test: Antibacterial activity against Staphylococcus aureus 42 by broth microdilution assay relative to daptomycin; type: functional
[6] = Protein binding in human plasma by UV/HPLC analysis; type: ADME, cell-free; settings: read-out: PPB (converted)
[7] = Membrane permeabilization activity in DOPC/DOPG large unilamellar liposomes assessed as leakage of calcein at 30 ug/ml preincubated with CaCl2 for 1 hr prior to testing; type: ADME
[8] = Membrane permeabilization activity in DOPC/DOPG large unilamellar liposomes assessed as leakage of calcein at 16 ug/ml; type: ADME
Staphylococcus aureus [9] = test: Antibacterial activity against vancomycin sensitive Staphylococcus aureus JKD6004 by microbroth dilution assay; type: functional
Staphylococcus aureus [10] = test: Antibacterial activity against Staphylococcus aureus JKD6004 harboring WalR K208R mutant by microbroth dilution assay; type: functional

CCCCCCCCCC(=O)N[C@@H](Cc1c[nH]c2ccccc12)C(=O)N[C@@H](CC(N)=O)C(=O)N[C@@H](CC(=O)O)C(=O)N[C@@H]1C(=O)NCC(=O)N[C@@H](CCCN)C(=O)N[C@@H](CC(=O)O)C(=O)N[C@H](C)C(=O)N[C@@H](CC(=O)O)C(=O)NCC(=O)N[C@H](CO)C(=O)N[C@@H](CCC(=O)O)C(=O)N[C@@H](Cc2c[nH]c3ccccc23)C(=O)O[C@@H]1C
fold change (FC) (Bacillus subtilis [1]): 33

CCCCCCCCCC(=O)N[C@@H](Cc1c[nH]c2ccccc12)C(=O)N[C@H](CC(N)=O)C(=O)N[C@@H](CC(=O)O)C(=O)N[C@H]1CNC(=O)[C@H](Cc2c[nH]c3ccccc23)NC(=O)[C@H](CCC(=O)O)NC(=O)[C@@H](CO)NC(=O)CNC(=O)[C@H](CC(=O)O)NC(=O)[C@@H](C)NC(=O)[C@H](CC(=O)O)NC(=O)[C@H](CCCN)NC(=O)CNC1=O
fold change (FC) (Staphylococcus aureus [2]): 100

CCCCCCCCCC(=O)N[C@@H](Cc1c[nH]c2ccccc12)C(=O)N[C@H](CC(N)=O)C(=O)N[C@@H](CC(=O)O)C(=O)N[C@@H]1C(=O)NCC(=O)N[C@@H](CCCN)C(=O)N[C@@H](CC(=O)O)C(=O)N[C@H](CC(N)=O)C(=O)N[C@@H](CC(=O)O)C(=O)NCC(=O)N[C@H](CO)C(=O)N[C@@H]([C@H](C)CC(=O)O)C(=O)N[C@@H](CC(=O)c2ccccc2N)C(=O)O[C@@H]1C
fold change (FC) (Bacillus subtilis [3]): 16

CCCCCCCCCC(=O)N[C@@H](Cc1c[nH]c2ccccc12)C(=O)N[C@H](CC(N)=O)C(=O)N[C@@H](CC(=O)O)C(=O)N[C@@H]1C(=O)NCC(=O)N[C@@H](CCCN)C(=O)N[C@@H](CC(=O)O)C(=O)N[C@H](CC(N)=O)C(=O)N[C@@H](CC(=O)O)C(=O)NCC(=O)N[C@H](CO)C(=O)N[C@@H](CCC(=O)O)C(=O)N[C@@H](CC(=O)c2ccccc2N)C(=O)O[C@@H]1C
fold change (FC) (Bacillus subtilis [3]): 256

CCCCCCCCCC(=O)N[C@@H](Cc1c[nH]c2ccccc12)C(=O)N[C@H](CC(N)=O)C(=O)N[C@@H](CC(=O)O)C(=O)N[C@@H]1C(=O)NCC(=O)N[C@@H](CCCN)C(=O)N[C@@H](CC(=O)O)C(=O)N[C@H](C)C(=O)N[C@@H](CC(=O)O)C(=O)NCC(=O)N[C@H](CC(N)=O)C(=O)N[C@@H](CCC(=O)O)C(=O)N[C@@H](CC(=O)c2ccccc2N)C(=O)O[C@@H]1C
fold change (FC) (Bacillus subtilis [3]): 64

CCCCCCCCCC(=O)N[C@@H](Cc1c[nH]c2ccccc12)C(=O)N[C@@H](CC(N)=O)C(=O)N[C@@H](CC(=O)O)C(=O)N[C@@H]1C(=O)NCC(=O)N[C@@H](CCCN)C(=O)N[C@@H](CC(=O)O)C(=O)N[C@H](C)C(=O)N[C@@H](CC(=O)O)C(=O)NCC(=O)N[C@H](CO)C(=O)N[C@@H](CCC(N)=O)C(=O)N[C@@H](CC(=O)c2ccccc2N)C(=O)O[C@@H]1C
fold change (FC) (Bacillus subtilis [1]): 10

CCCCCCCCCC(=O)N[C@@H](Cc1c[nH]c2ccccc12)C(=O)N[C@H](CC(N)=O)C(=O)N[C@@H](CC(=O)O)C(=O)N[C@@H]1C(=O)NCC(=O)N[C@@H](CCCN)C(=O)N[C@@H](CC(=O)O)C(=O)N[C@H](CC(N)=O)C(=O)N[C@@H](CC(=O)O)C(=O)NCC(=O)N[C@H](CO)C(=O)N[C@@H]([C@H](C)CC(=O)O)C(=O)N[C@@H]([C@@H](C)CC)C(=O)O[C@@H]1C
fold change (FC) (Bacillus subtilis [3]): 32

CCCCCCCCCC(=O)N[C@@H](Cc1c[nH]c2ccccc12)C(=O)N[C@H](CC(N)=O)C(=O)N[C@@H](CC(=O)O)C(=O)N[C@H]1CNC(=O)[C@H](CC(=O)c2ccccc2N)NC(=O)[C@H](CCC(=O)O)NC(=O)[C@@H](CO)NC(=O)CNC(=O)[C@H](CC(=O)O)NC(=O)[C@@H](C)NC(=O)[C@H](CC(=O)O)NC(=O)[C@H](CCCN)NC(=O)CNC1=O
fold change (FC) (Staphylococcus aureus [2]): 200

CCCCCCCCCC(=O)N[C@@H](Cc1c[nH]c2ccccc12)C(=O)N[C@@H](CC(N)=O)C(=O)N[C@@H](CC(N)=O)C(=O)N[C@@H]1C(=O)NCC(=O)N[C@@H](CCCN)C(=O)N[C@@H](CC(=O)O)C(=O)N[C@H](C)C(=O)N[C@@H](CC(=O)O)C(=O)NCC(=O)N[C@H](CO)C(=O)N[C@@H](CCC(=O)O)C(=O)N[C@@H](CC(=O)c2ccccc2N)C(=O)O[C@@H]1C
fold change (FC) (Bacillus subtilis [1]): 27

CCCCCCCCCC(=O)N[C@@H](Cc1c[nH]c2ccccc12)C(=O)N[C@H](CC(N)=O)C(=O)N[C@@H](CC(=O)O)C(=O)N[C@@H]1C(=O)NCC(=O)N[C@@H](CCCNC(=O)Cc2c(C)c3cc(S(=O)(=O)O)c(N)cc3oc2=O)C(=O)N[C@@H](CC(=O)O)C(=O)N[C@H](C)C(=O)N[C@@H](CC(=O)O)C(=O)NCC(=O)N[C@H](CO)C(=O)N[C@@H]([C@@H](C)CC(=O)O)C(=O)N[C@@H](CC(=O)c2ccccc2N)C(=O)O[C@@H]1C
MIC (Bacillus spizizenii): 12 µg/mL (≈ 6.26 µM)

CCCCCCCCCC(=O)N[C@@H](Cc1c[nH]c2ccccc12)C(=O)N[C@H](CC(N)=O)C(=O)N[C@@H](CC(=O)O)C(=O)N[C@@H]1C(=O)NCC(=O)N[C@@H](CCCN)C(=O)N[C@@H](CC(=O)O)C(=O)N[C@H](C)C(=O)N[C@@H](CC(=O)O)C(=O)NCC(=O)N[C@H](CO)C(=O)N[C@@H]([C@H](C)CC(=O)O)C(=O)N[C@@H](Cc2ccc(O)cc2)C(=O)O[C@@H]1C
fold change (FC) (Bacillus subtilis [1]): 47

CCCCCCCCCC(=O)N[C@@H](Cc1c[nH]c2ccccc12)C(=O)N[C@H](CC(N)=O)C(=O)N[C@@H](CC(=O)O)C(=O)N[C@@H]1C(=O)NCC(=O)N[C@@H](CCCN)C(=O)N[C@@H](CC(=O)O)C(=O)N[C@H](C)C(=O)N[C@@H](CC(=O)O)C(=O)NCC(=O)N[C@H](CC(N)=O)C(=O)N[C@@H]([C@H](C)CC(=O)O)C(=O)N[C@@H]([C@@H](C)CC)C(=O)O[C@@H]1C
fold change (FC) (Bacillus subtilis [3]): 8

CCCCCCCCCC(=O)N[C@@H](Cc1c[nH]c2ccccc12)C(=O)N[C@H](CC(N)=O)C(=O)N[C@@H](CC(=O)O)C(=O)N[C@@H]1C(=O)NCC(=O)N[C@@H](CCCNC(=N)CCCSCCC(=O)c2ccc3cc(N(C)C)ccc3c2)C(=O)N[C@@H](CC(=O)O)C(=O)N[C@H](C)C(=O)N[C@@H](CC(=O)O)C(=O)NCC(=O)N[C@H](CO)C(=O)N[C@@H]([C@@H](C)CC(=O)O)C(=O)N[C@@H](CC(=O)c2ccccc2N)C(=O)O[C@@H]1C
MIC (Bacillus spizizenii): 10 µg/mL (≈ 5.14 µM)

CCCCCCCCCC(=O)N[C@@H](Cc1c[nH]c2ccccc12)C(=O)N[C@H](CC(N)=O)C(=O)N[C@@H](CC(=O)O)C(=O)N[C@@H]1C(=O)NCC(=O)N[C@@H](CCCNc2ccc([N+](=O)[O-])c3nonc23)C(=O)N[C@@H](CC(=O)O)C(=O)N[C@H](C)C(=O)N[C@@H](CC(=O)O)C(=O)NCC(=O)N[C@H](CO)C(=O)N[C@@H]([C@@H](C)CC(=O)O)C(=O)N[C@@H](CC(=O)c2ccccc2N)C(=O)O[C@@H]1C
MIC (Bacillus spizizenii): 3 µg/mL (≈ 1.68 µM)

CCCCCCCCCC(=O)N[C@@H](Cc1c[nH]c2ccccc12)C(=O)N[C@@H](CC(N)=O)C(=O)N[C@@H](CC(=O)O)C(=O)N[C@@H]1C(=O)NCC(=O)N[C@@H](CCCN)C(=O)N[C@@H](CC(=O)O)C(=O)N[C@H](C)C(=O)N[C@@H](CC(=O)O)C(=O)NCC(=O)N[C@H](CC(=O)O)C(=O)N[C@@H](CCC(=O)O)C(=O)N[C@@H](CC(=O)c2ccccc2N)C(=O)O[C@@H]1C
fold change (FC) (Bacillus subtilis [1]): >100

CCCCCCCCCC(=O)N[C@@H](Cc1c[nH]c2ccccc12)C(=O)N[C@@H](CC(N)=O)C(=O)N[C@@H](CC(=O)O)C(=O)N[C@@H]1C(=O)NCC(=O)N[C@@H](CCCCN)C(=O)N[C@@H](CC(=O)O)C(=O)N[C@H](C)C(=O)N[C@@H](CC(=O)O)C(=O)NCC(=O)N[C@H](CO)C(=O)N[C@@H](CCC(=O)O)C(=O)N[C@@H](Cc2c[nH]c3ccccc23)C(=O)O[C@@H]1C
fold change (FC) (Bacillus subtilis [1]): 33

C[C@H]1NC(=O)[C@H](CC(=O)O)NC(=O)[C@H](CCCN)NC(=O)CNC(=O)[C@@H](NC(=O)[C@H](CC(=O)O)NC(=O)[C@@H](CC(N)=O)NC(=O)[C@H](Cc2c[nH]c3ccccc23)NC(=O)CCCc2cc3cccc4c5cccc6cccc(c(c2)c34)c65)[C@@H](C)OC(=O)[C@H](CC(=O)c2ccccc2N)NC(=O)[C@H]([C@@H](C)CC(=O)O)NC(=O)[C@@H](CO)NC(=O)CNC(=O)[C@H](CC(=O)O)NC1=O
MIC (Bacillus subtilis [4]): 3 µg/mL (≈ 1.68 µM)

CCCCCCCCCC(=O)N[C@@H](Cc1c[nH]c2ccccc12)C(=O)NC(CC(N)=O)C(=O)N[C@@H](CC(=O)O)C(=O)N[C@@H]1C(=O)NCC(=O)N[C@@H](CCCN)C(=O)N[C@@H](CC(=O)O)C(=O)N[C@H](C)C(=O)N[C@@H](CC(=O)O)C(=O)NCC(=O)N[C@H](CO)C(=O)N[C@@H]([C@H](C)CC(=O)O)C(=O)N[C@@H](CC(=O)c2ccccc2N)C(=O)O[C@@H]1C (single isomer, unassigned)
fold change (FC) (Enterococcus faecium): 10 | fold change (FC) (Enterococcus faecalis): 10 | fold change (FC) (Staphylococcus aureus [5]): 10

CCCCCCCCCC(=O)N[C@@H](Cc1c[nH]c2ccccc12)C(=O)N[C@H](CC(N)=O)C(=O)N[C@@H](CC(=O)O)C(=O)N[C@@H]1C(=O)NCC(=O)N[C@@H](CCCN)C(=O)N[C@@H](CC(=O)O)C(=O)N[C@H](C)C(=O)N[C@@H](CC(=O)O)C(=O)NCC(=O)N[C@H](CO)C(=O)N[C@@H]([C@H](C)CC(=O)O)C(=O)N[C@@H](CC(=O)c2ccccc2N)C(=O)O[C@@H]1C [DAPTOMYCIN]
fraction unbound [6]: 0.1 | Activity [7]: 100% | Activity [8]: < 10%

CCCCCCCCCC(=O)N[C@@H](Cc1c[nH]c2ccccc12)C(=O)N[C@@H](CC(N)=O)C(=O)N[C@@H](CC(=O)O)C(=O)N[C@@H]1C(=O)NCC(=O)N[C@@H](CCCN)C(=O)N[C@@H](CC(=O)O)C(=O)N[C@H](C)C(=O)N[C@@H](CC(=O)O)C(=O)NCC(=O)N[C@H](CO)C(=O)N[C@@H]([C@H](C)CC(=O)O)C(=O)N[C@@H](CC(=O)c2ccccc2N)C(=O)O[C@@H]1C [DAPTOMYCIN]
MIC (Staphylococcus aureus [9]): 0.5 µg/mL (≈ 0.309 µM) | MIC (Staphylococcus aureus [10]): 2 µg/mL (≈ 1.23 µM)
